Among the test systems are MOLT-4 leukemia; MDA-MB-435; HCT-15 colon; UACC-257 melanoma; HOP-62 NSCLC; KM12 colon; SK-MEL-5 melanoma; 786-0 renal; SF-268 CNS; UACC-62 melanoma.
Assay in all cases: DTP human tumour cell line panel, 48 h

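Values below derive from 48-hour exposures of cells grown in 96-well plates, with endpoints linearly interpolated between the two concentrations bracketing the appropriate inhibition level. GI50 marks 50% less growth. TGI marks complete inhibition of growth.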 Some results are limits rather than exact numbers.

With `Cc1cc(C(=O)Nc2cc(Nc3ncccc3-c3ncnc4nc[nH]c34)ccc2F)cc(C(C)(C)C#N)c1`, the GI50 is 3450 nM with MOLT-4 leukemia; 0.182 µM in the test with MDA-MB-435; 2.97 µM in the test on HCT-15 colon; 0.0867 µM in the test on UACC-257 melanoma; 0.461 µM with HOP-62 NSCLC; 2.9 µM with KM12 colon. For the same compound, the GI50 in the test on SK-MEL-5 melanoma is 1.38 µM; in the test on 786-0 renal, 13.9 µM; in the test with SF-268 CNS, 7.85 µM. Moreover, the concentration for total growth inhibition (TGI) with MOLT-4 leukemia, in the test with MDA-MB-435, with HCT-15 colon, in the test on UACC-257 melanoma, in the test on HOP-62 NSCLC and with KM12 colon was above 100 µM throughout. In addition, the concentration for total growth inhibition (TGI) in the test on SK-MEL-5 melanoma is 13.7 µM; in the test with 786-0 renal, above 100 µM; in the test with SF-268 CNS it was above 100 µM.
On to `Nc1ccc2c(SCC(=O)Nc3ccccc3-c3ccccc3NC(=O)CSc3c4ccccc4nc4cc(N)ccc34)c3ccccc3nc2c1`, for which the concentration for total growth inhibition (TGI) is above 44.1 µM in the test with MOLT-4 leukemia; above 73.5 µM in the test with MDA-MB-435; above 93.8 µM with HCT-15 colon; 71.9 µM with UACC-257 melanoma; 63.4 µM in the test on HOP-62 NSCLC; 56.5 µM in the test with UACC-62 melanoma. In addition, the TGI in the test with KM12 colon worked out at 65.8 µM; with SK-MEL-5 melanoma, 30.1 µM; with 786-0 renal it was 56 µM; in the test on SF-268 CNS, 93.3 µM.
For `Cc1cc([C@H](C)Nc2nccc(N3C(=O)OC[C@@H]3[C@H](C)F)n2)ncc1-c1ccnc(C(F)(F)F)c1`, the GI50 in the test on MOLT-4 leukemia is 34600 nM; with MDA-MB-435 it was 41.1 µM; in the test with HCT-15 colon, 35.5 µM; in the test on UACC-257 melanoma, 30.5 µM; in the test on HOP-62 NSCLC, 28.7 µM; in the test with UACC-62 melanoma, 21.7 µM. Besides, the GI50 in the test on KM12 colon is 33.8 µM; with SK-MEL-5 melanoma, 12.1 µM; in the test on 786-0 renal it was 42.4 µM; with SF-268 CNS, 54 µM. Moreover, the TGI in the test with MOLT-4 leukemia, in the test on MDA-MB-435, with HCT-15 colon, in the test on UACC-257 melanoma, with HOP-62 NSCLC and in the test on UACC-62 melanoma was above 100 µM throughout. Moreover, the TGI in the test on KM12 colon was above 100 µM; in the test with SK-MEL-5 melanoma it was 33 µM; in the test on 786-0 renal, above 100 µM; with SF-268 CNS, above 100 µM.
As for `NCCNc1nc2ccccc2c2c(=O)c3cc(F)cc(Cl)c3sc12`, the GI50 in the test with MOLT-4 leukemia is 1820 nM; in the test with MDA-MB-435 it was 1.73 µM; with HCT-15 colon, 1.18 µM; in the test on UACC-257 melanoma it was 1.85 µM; in the test on HOP-62 NSCLC it was 1.35 µM; in the test with UACC-62 melanoma it was 1.66 µM. Moreover, the GI50 in the test with KM12 colon was 1.73 µM; with SK-MEL-5 melanoma, 2.52 µM; in the test on 786-0 renal, 1.64 µM; with SF-268 CNS, 1.57 µM. Further, the concentration for total growth inhibition (TGI) was found to be 3.69 µM in the test with MOLT-4 leukemia; 3.22 µM with MDA-MB-435; 2.5 µM in the test on HCT-15 colon; 3.72 µM in the test with UACC-257 melanoma; 3.04 µM in the test with HOP-62 NSCLC; 3.06 µM in the test on UACC-62 melanoma. The total growth inhibition concentration (TGI) in the test on KM12 colon was determined as 3.24 µM; in the test on SK-MEL-5 melanoma, 6.66 µM; in the test with 786-0 renal, 3.14 µM; in the test on SF-268 CNS it was 3.29 µM.
Turning to `CC(C)c1ccc2c(c1)c(SC(C)(C)C)c(CC(C)(C)C(=O)O)n2Cc1ccc(Cl)cc1`, the GI50 was 1640 nM in the test with MOLT-4 leukemia; 10.2 µM in the test with MDA-MB-435; 8.8 µM in the test on HCT-15 colon; 11 µM in the test with UACC-257 melanoma; 12.4 µM in the test on HOP-62 NSCLC; 11.8 µM with UACC-62 melanoma. For the same compound, the GI50 in the test on KM12 colon is 10.2 µM; in the test on SK-MEL-5 melanoma it was 9.53 µM; with 786-0 renal, 11.1 µM; in the test on SF-268 CNS, 8.79 µM. Besides, the concentration for total growth inhibition (TGI) in the test on MOLT-4 leukemia is 26.3 µM; in the test with MDA-MB-435 it was 26.1 µM; in the test on HCT-15 colon, 23.4 µM; with UACC-257 melanoma it was 24.7 µM; in the test on HOP-62 NSCLC, 28.9 µM; with UACC-62 melanoma it was 24 µM. Further, the concentration for total growth inhibition (TGI) in the test on KM12 colon came out at 26.3 µM; in the test with SK-MEL-5 melanoma, 22.4 µM; with 786-0 renal it was 27.7 µM; with SF-268 CNS, 23.5 µM.
Consider `CCOC(=O)/N=c1\ssc(Cl)c1Cl`, for which the GI50 with MOLT-4 leukemia is 3060 nM; with MDA-MB-435, 15.2 µM; with UACC-257 melanoma it was 15.3 µM; with HOP-62 NSCLC, 43.7 µM; in the test with UACC-62 melanoma, 14 µM; with KM12 colon it was 16.7 µM. Further, the figures for the GI50 in the test with SK-MEL-5 melanoma, with 786-0 renal and with SF-268 CNS were 3.9 µM, 12.8 µM and 17.4 µM, respectively. Moreover, the TGI is above 100 µM with MOLT-4 leukemia; 30.8 µM in the test with MDA-MB-435; 30.7 µM in the test on UACC-257 melanoma; above 100 µM in the test on HOP-62 NSCLC; 29.6 µM in the test on UACC-62 melanoma; 35.9 µM in the test on KM12 colon. In addition, the total growth inhibition concentration (TGI) was 19.1 µM in the test with SK-MEL-5 melanoma, above 100 µM in the test on 786-0 renal and 41.6 µM in the test with SF-268 CNS.
Turning to `Cc1ccc(S(=O)c2ccc([N+](=O)[O-])c3nonc23)cc1` (configuration not stated), the GI50 with MOLT-4 leukemia was 2640 nM; in the test on MDA-MB-435, 10.2 µM; in the test with UACC-257 melanoma, 11.6 µM; in the test with HOP-62 NSCLC it was 16.2 µM; in the test with UACC-62 melanoma it was 7.25 µM; in the test on KM12 colon, 15.8 µM. Besides, the GI50 in the test with SK-MEL-5 melanoma is 14.8 µM; in the test with 786-0 renal, 13.2 µM; in the test with SF-268 CNS, 15 µM. Also, the concentration for total growth inhibition (TGI) in the test on MOLT-4 leukemia worked out at 6.96 µM; in the test on MDA-MB-435, 26 µM; in the test on UACC-257 melanoma, 23.9 µM; with HOP-62 NSCLC, 30.8 µM; in the test on UACC-62 melanoma it was 20.2 µM; with KM12 colon, 31.1 µM. In addition, the TGI in the test with SK-MEL-5 melanoma came out at 28.5 µM; in the test with 786-0 renal, 26.2 µM; in the test on SF-268 CNS, 29.9 µM.
As for `O=C(/C(=N/Nc1cn[nH]c(=O)c1Cl)c1ccccc1)c1ccccc1`, the concentration for total growth inhibition (TGI) in the test on MOLT-4 leukemia was 97.2 µM; in the test with MDA-MB-435, 32.6 µM; in the test with HCT-15 colon it was 51.3 µM; with UACC-257 melanoma, 80.2 µM; with HOP-62 NSCLC it was above 100 µM; with UACC-62 melanoma, 53.5 µM. Further, the values for the total growth inhibition concentration (TGI) with KM12 colon, with SK-MEL-5 melanoma and in the test on 786-0 renal were 32.9 µM, above 100 µM and 68.7 µM, respectively.
On to `Cc1nnc(N=Nc2c(O)[nH]c3ccccc23)[nH]c1=O`, for which the TGI in the test on MOLT-4 leukemia, with MDA-MB-435, with HCT-15 colon, in the test with UACC-257 melanoma, in the test on HOP-62 NSCLC and in the test with UACC-62 melanoma was above 100 µM in each case. In addition, the total growth inhibition concentration (TGI) in the test on KM12 colon, with 786-0 renal and in the test with SF-268 CNS was above 100 µM each time.

The values are drawn from PubChem BioAssay (NCI).
